Experimental data reported in US20260364214A1, “MULTIVALENT FIBROBLAST ACTIVATION PROTEIN LIGANDS FOR TARGETED DELIVERY APPLICATIONS” (Philochem AG, priority 2022, published 2026).

Tests used:
[1] = Determination of Log D7.4 (1-octanol/PBS); type: physicochemical; details: 1-octanol/PBS pH 7.4; 177Lu-labeled
Description: The lipophilicity of ^177Lu-ESV6, ^177Lu-Bi-ESV6, ^177Lu-Tri-ESV6 and ^177Lu-FAP-2286 was determined as follows. 100 μL aliquots of the radioligand (~1 MBq) in PBS buffer were added to PBS buffer (500 μL, pH 7.4) and 1-octanol (600 μL). The two-layer mixture were vigorously shaken for 10 minutes on a vortex mixer and then centrifuged at 700 rpm for 5 min to facilitate the separation. 100 μL aliquots of both layers were measured in a Packard Cobra Gamma Counter and the partition coefficient was determined by dividing cpm (octanol) by cpm (PBS) and indicated as Log D7.4. • Log D7.4 (^177Lu-ESV6): −4.13 • Log D7.4 (^177Lu-Bi-ESV6): −3.75 • Log D7.4 (^177Lu-Tri-ESV6): −3.10 • Log D7.4 (^177Lu-FAP-2286): −3.05

SK-RC-52.hFAP tumors = experiment: Quantitative biodistribution in SK-RC-52.hFAP tumor bearing mice; type: in vivo, mouse (female athymic Balb/c AnNRj-Foxn1); details: i.v. 250 nmol/kg, 50 MBq/kg
Description: SK-RC-52.hFAP were grown to 80% confluence in RPMI-1640 with 10% fetal bovine serum (FBS) and 1% antibiotic-antimycotic and detached with Trypsin-EDTA (ethylenediaminetetraacetic acid) 0.05%. Tumor cells were resuspended in Hanks' Balanced Salt Solution medium. Aliquots of 5 million cells (100 μL of suspension) were injected subcutaneously in the right flank of female athymic Balb/c AnNRj-Foxn1 mice (6 to 8 wk of age).
Radiolabeling of ESV6-DOTAGA, Bi-ESV6-DOTAGA, Tri-ESV6-DOTAGA, Tetra-ESV6-DOTAGA, Hexa-ESV6-DOTAGA, Octa-ESV6-DOTAGA and FAP-2286 with lutetium-177 (a therapeutic radionuclide) was performed with different specific activities for three different studies (biodistribution, therapy and dose optimization).
Prior to the biodistribution study, precursors (100 nmol) were dissolved in 100 μL of milliQ water and diluted with 200 μL of sodium acetate (1 M in water, pH=4.5). 20 MBq of ^177Lu solution were added and the mixture was heated at 90 °C for 10 minutes, followed by dilution with […] of PBS to achieve final volume of 2 mL (20 doses of 100 μL each).
ESV6-DOTAGA, Bi-ESV6-DOTAGA, Tri-ESV6-DOTAGA, Tetra-ESV6-DOTAGA, Hexa-ESV6-DOTAGA, Octa-ESV6-DOTAGA and FAP-2286 were radiolabeled with ^177Lu as described above. Tumors were allowed to grow to an average volume of 300 mm^3. Mice were randomized and injected intravenously with radiolabeled preparations of ^177Lu-ESV6, ^177Lu-Bi-ESV6, ^177Lu-Tri-ESV6, Tetra-ESV6-DOTAGA, Hexa-ESV6-DOTAGA, Octa-ESV6-DOTAGA or ^177Lu-FAP-2286 (250 nmol/kg; 50 MBq/kg). Mice were euthanized at different time-points after the intravenous injection by CO2 asphyxiation. Tumors, organs, and blood were collected, weighted, and radioactivity was measured with a Packard Cobra Gamma Counter. Values are expressed as percent ID/g±SD [FIG. 4]. The % ID/g in the tumors was corrected considering the SK-RC-52.hFAP tumor growth rate.
Quantitative in vivo biodistribution of ^177Lu-ESV6-DOTAGA, ^177Lu-Bi-ESV6-DOTAGA, ^177Lu-Tri-ESV6-DOTAGA, ^177Lu-FAP-2286, Tetra-ESV6-DOTAGA, Hexa-ESV6-DOTAGA and Octa-ESV6-DOTAGA at different time points after intravenous administration (250 nmol/kg, 50 MBq/kg) in mice bearing SK-RC-52.hFAP tumors, are shown in Tables 1 to 4 and 10 to 12. Data are reported as % ID/g±standard deviation.
Tumor-to-organ ratios of ^177Lu-ESV6-DOTAGA, ^177Lu-Bi-ESV6-DOTAGA, ^177Lu-Tri-ESV6-DOTAGA, ^177Lu-FAP-2286, Tetra-ESV6-DOTAGA, Hexa-ESV6-DOTAGA and Octa-ESV6-DOTAGA, at different time points after intravenous administration (250 nmol/kg, 50 MBq/kg) in mice bearing SK-RC-52.hFAP tumors, are shown in Tables 5 to 8 and 13 to 15. Avg.=average; Std.d=standard deviation.

## N#CC1CC(F)(F)CN1C(=O)CNC(=O)c1ccnc2c(NC(=O)CCC(=O)NCCCCC(NC(=O)CCC(=O)Nc3cccc4c(C(=O)NCC(=O)N5CC(F)(F)CC5C#N)ccnc34)C(=O)NCCNC(=O)CCC(C(=O)O)N3CCN(CC(=O)[O-])CCN(CC(=O)[O-])CCN(CC(=O)[O-])CC3)cccc12.[177Lu+3] (stereo not shown) [^177Lu-Bi-ESV6-DOTAGA, reference compound]
[1]
  Log D7.4: −3.75
SK-RC-52.hFAP tumors; 24 h
  Tumor to organs ratio, Blood: 270.81
  Tumor to organs ratio, Heart: 342.92
  Tumor to organs ratio, Intestine: 298.43
  Tumor to organs ratio, Kidney: 14.96
  Tumor to organs ratio, Liver: 48.81
  Tumor to organs ratio, Lung: 184.57
  Tumor to organs ratio, Muscle: 135.38
  Tumor to organs ratio, Spleen: 125.34
  Tumor to organs ratio, Tail: 69.69
SK-RC-52.hFAP tumors; 24 h post injection
  Injected dose per gram, Blood: 0.05 % ID/g
  Injected dose per gram, Heart: 0.05 % ID/g
  Injected dose per gram, Intestine: 0.05 % ID/g
  Injected dose per gram, Kidney: 0.96 % ID/g
  Injected dose per gram, Liver: 0.29 % ID/g
  Injected dose per gram, Lung: 0.08 % ID/g
  Injected dose per gram, Muscle: 0.12 % ID/g
  Injected dose per gram, Spleen: 0.11 % ID/g
  Injected dose per gram, Tail: 0.22 % ID/g
  Injected dose per gram, Tumor: 14.29 % ID/g
SK-RC-52.hFAP tumors; 48 h
  Tumor to organs ratio, Blood: 4240.99
  Tumor to organs ratio, Heart: 1206.24
  Tumor to organs ratio, Intestine: 458.76
  Tumor to organs ratio, Kidney: 17.41
  Tumor to organs ratio, Liver: 51.30
  Tumor to organs ratio, Lung: 300.13
  Tumor to organs ratio, Muscle: 270.58
  Tumor to organs ratio, Spleen: 133.66
  Tumor to organs ratio, Tail: 187.42
SK-RC-52.hFAP tumors; 48 h post injection
  Injected dose per gram, Blood: 0.00 % ID/g
  Injected dose per gram, Heart: 0.01 % ID/g
  Injected dose per gram, Intestine: 0.03 % ID/g
  Injected dose per gram, Kidney: 0.47 % ID/g
  Injected dose per gram, Liver: 0.16 % ID/g
  Injected dose per gram, Lung: 0.03 % ID/g
  Injected dose per gram, Muscle: 0.05 % ID/g
  Injected dose per gram, Spleen: 0.07 % ID/g
  Injected dose per gram, Tail: 0.07 % ID/g
  Injected dose per gram, Tumor: 8.10 % ID/g
SK-RC-52.hFAP tumors; 72 h
  Tumor to organs ratio, Blood: 2515.44
  Tumor to organs ratio, Heart: 203.58
  Tumor to organs ratio, Intestine: 544.57
  Tumor to organs ratio, Kidney: 12.21
  Tumor to organs ratio, Liver: 28.14
  Tumor to organs ratio, Lung: 517.13
  Tumor to organs ratio, Muscle: 140.83
  Tumor to organs ratio, Spleen: 61.08
  Tumor to organs ratio, Tail: 64.13
SK-RC-52.hFAP tumors; 72 h post injection
  Injected dose per gram, Blood: 0.00 % ID/g
  Injected dose per gram, Heart: 0.04 % ID/g
  Injected dose per gram, Intestine: 0.06 % ID/g
  Injected dose per gram, Kidney: 0.66 % ID/g
  Injected dose per gram, Liver: 0.29 % ID/g
  Injected dose per gram, Lung: 0.06 % ID/g
  Injected dose per gram, Muscle: 0.08 % ID/g
  Injected dose per gram, Spleen: 0.14 % ID/g
  Injected dose per gram, Tail: 0.12 % ID/g
  Injected dose per gram, Tumor: 8.00 % ID/g
